Test results as given in PubChem BioAssay AID2060606 (Molecular Pharmacology Branch, DTP, NCI, 2025).

Tested on: 922993-354-T-J3-PDC complex spheroids, viability, % test/control
Experiment: Anticancer human tumor 922993-354-T-J3-PDC patient-derived endometrial carcinoma cell line growth inhibition [CLK]
Conditions: for IC50: curve of first compound; for viability, T/C: stronger effect = lower value
Method in brief: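 Patient-derived tumor cells grown as complex spheroids with HUVEC endothelial cells and mesenchymal stem cells, treated with drug combinations. Concentrations descend in half-log steps from near clinical Cmax, or from 10 microM if Cmax unknown.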

[1] = second compound 0.0316 µM, first compound 0.0316 µM
[2] = second compound 0.0316 µM, first compound 0.1 µM
[3] = second compound 0.0316 µM, first compound 0.316 µM
[4] = second compound 0.0316 µM, first compound 1 µM
[5] = second compound 0.0316 µM, first compound 3.16 µM
[6] = second compound 0.0316 µM, first compound 10 µM
[7] = second compound 0.1 µM, first compound 0.0316 µM
[8] = second compound 0.1 µM, first compound 0.1 µM
[9] = second compound 0.1 µM, first compound 0.316 µM
[10] = second compound 0.1 µM, first compound 1 µM
[11] = second compound 0.1 µM, first compound 3.16 µM
[12] = second compound 0.1 µM, first compound 10 µM
[13] = second compound 0.316 µM, first compound 0.0316 µM
[14] = second compound 0.316 µM, first compound 0.1 µM
[15] = second compound 0.316 µM, first compound 0.316 µM
[16] = second compound 0.316 µM, first compound 1 µM
[17] = second compound 0.316 µM, first compound 3.16 µM
[18] = second compound 0.316 µM, first compound 10 µM
[19] = second compound 1 µM, first compound 0.0316 µM
[20] = second compound 1 µM, first compound 0.1 µM
[21] = second compound 1 µM, first compound 0.316 µM
[22] = second compound 1 µM, first compound 1 µM
[23] = second compound 1 µM, first compound 3.16 µM
[24] = second compound 1 µM, first compound 10 µM
[25] = second compound 3.16 µM, first compound 0.0316 µM
[26] = second compound 3.16 µM, first compound 0.1 µM
[27] = second compound 3.16 µM, first compound 0.316 µM
[28] = second compound 3.16 µM, first compound 1 µM
[29] = second compound 3.16 µM, first compound 3.16 µM
[30] = second compound 3.16 µM, first compound 10 µM
[31] = second compound 10 µM, first compound 0.0316 µM
[32] = second compound 10 µM, first compound 0.1 µM
[33] = second compound 10 µM, first compound 0.316 µM
[34] = second compound 10 µM, first compound 1 µM
[35] = second compound 10 µM, first compound 3.16 µM
[36] = second compound 10 µM, first compound 10 µM
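Further: spheroids exposed to the agents for 7 days before readout.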

Q: How did the IC50 (second compound 0.0316 µM) turn out when `COc1ccc([C@@H](O)c2cc(-c3ncnc4cc(N5CCOCC5)ccc34)c(F)cc2Cl)nn1` + CN1CCN(c2cc(C(=O)Nc3cc4cc(-c5cnn(C)c5)ccc4cn3)ccn2)CC1 was run?
A: > 10 µM

Q: And the IC50 (second compound 0.1 µM)?
A: > 10 µM

Q: What about the IC50 (second compound 0.316 µM) of the same compound?
A: < 0.0316 µM

Q: What about the IC50 (second compound 1 µM) of the same compound?
A: < 0.0316 µM

Q: What about the IC50 (second compound 3.16 µM) of the same compound?
A: < 0.0316 µM

Q: What about the IC50 (second compound 10 µM) of the same compound?
A: < 0.0316 µM

Q: And the viability, T/C [1]?
A: 112%

Q: And the viability, T/C [2]?
A: 131%

Q: What about the viability, T/C [3] of the same compound?
A: 123%

Q: And the viability, T/C [4]?
A: 122%

Q: What about the viability, T/C [5] of the same compound?
A: 112%

Q: What about the viability, T/C [6] of the same compound?
A: 85.4%

Q: And the viability, T/C [7]?
A: 87.8%

Q: What about the viability, T/C [8] of the same compound?
A: 87.7%

Q: And the viability, T/C [9]?
A: 85.6%

Q: What about the viability, T/C [10] of the same compound?
A: 91.5%

Q: And the viability, T/C [11]?
A: 90.2%

Q: And the viability, T/C [12]?
A: 76.1%

Q: And the viability, T/C [13]?
A: 35.9%

Q: What about the viability, T/C [14] of the same compound?
A: 33.1%

Q: And the viability, T/C [15]?
A: 30.8%

Q: And the viability, T/C [16]?
A: 25.4%

Q: What about the viability, T/C [17] of the same compound?
A: 24.9%

Q: What about the viability, T/C [18] of the same compound?
A: 24.7%

Q: What about the viability, T/C [19] of the same compound?
A: 0.11%

Q: What about the viability, T/C [20] of the same compound?
A: 0.13%

Q: And the viability, T/C [21]?
A: 0.13%

Q: What about the viability, T/C [22] of the same compound?
A: 0.11%

Q: And the viability, T/C [23]?
A: 0.22%

Q: What about the viability, T/C [24] of the same compound?
A: 1.37%

Q: And the viability, T/C [25]?
A: 0.13%

Q: What about the viability, T/C [26] of the same compound?
A: 0.14%

Q: What about the viability, T/C [27] of the same compound?
A: 1.21%

Q: What about the viability, T/C [28] of the same compound?
A: 1.06%

Q: And the viability, T/C [29]?
A: 2.69%

Q: What about the viability, T/C [30] of the same compound?
A: 1.48%

Q: And the viability, T/C [31]?
A: 0.14%

Q: What about the viability, T/C [32] of the same compound?
A: 2.05%

Q: What about the viability, T/C [33] of the same compound?
A: 1.47%

Q: And the viability, T/C [34]?
A: 0.25%

Q: What about the viability, T/C [35] of the same compound?
A: 1.52%

Q: What about the viability, T/C [36] of the same compound?
A: 2.52%

Q: Which results are given for `COc1cccc2c1C(=O)c1c(O)c3c(c(O)c1C2=O)CC(O)(C(=O)CO)CC3OC1CC(N)C(O)C(C)O1` (stereo unspecified) + CN1CCN(c2cc(C(=O)Nc3cc4cc(-c5cnn(C)c5)ccc4cn3)ccn2)CC1?
A: IC50 (second compound 0.0316 µM): 2.21 µM; IC50 (second compound 0.1 µM): 1.84 µM; IC50 (second compound 0.316 µM): < 0.0316 µM; IC50 (second compound 1 µM): < 0.0316 µM; IC50 (second compound 3.16 µM): < 0.0316 µM; IC50 (second compound 10 µM): < 0.0316 µM; viability, T/C [1]: 108%; viability, T/C [2]: 119%; viability, T/C [3]: 93.7%; viability, T/C [4]: 66.1%; viability, T/C [5]: 45.2%; viability, T/C [6]: 15.5%; viability, T/C [7]: 123%; viability, T/C [8]: 109%; viability, T/C [9]: 83.3%; viability, T/C [10]: 65%; viability, T/C [11]: 37.8%; viability, T/C [12]: 17.4%; viability, T/C [13]: 31%; viability, T/C [14]: 38%; viability, T/C [15]: 32.9%; viability, T/C [16]: 26.4%; viability, T/C [17]: 13.3%; viability, T/C [18]: 11.1%; viability, T/C [19]: 0.14%; viability, T/C [20]: 1.85%; viability, T/C [21]: 0.14%; viability, T/C [22]: 0.11%; viability, T/C [23]: 0.09%; viability, T/C [24]: 1.32%; viability, T/C [25]: 0.12%; viability, T/C [26]: 0.2%; viability, T/C [27]: 0.67%; viability, T/C [28]: 0.09%; viability, T/C [29]: 1.78%; viability, T/C [30]: 1.28%; viability, T/C [31]: 0.16%; viability, T/C [32]: 0.15%; viability, T/C [33]: 0.16%; viability, T/C [34]: 0.15%; viability, T/C [35]: 1.57%; viability, T/C [36]: 1.56%

Q: Which results are given for `C=C(F)C(=O)N1CCN(c2nc(OCC3CCCN3C)nc3c2CCN(c2cccc4cccc(Cl)c24)C3)CC1CC#N` (stereo unspecified) + CNC(=O)c1ccc(Nc2nc(OC3CCCC3)c3c(-c4ccc5nc(C)oc5c4)c[nH]c3n2)c(OC)c1?
A: IC50 (second compound 0.0316 µM): 5.65 µM; IC50 (second compound 0.1 µM): 5.63 µM; IC50 (second compound 0.316 µM): 3.48 µM; IC50 (second compound 1 µM): < 0.0316 µM; IC50 (second compound 3.16 µM): < 0.0316 µM; IC50 (second compound 10 µM): < 0.0316 µM; viability, T/C [1]: 109%; viability, T/C [2]: 99.7%; viability, T/C [3]: 97.5%; viability, T/C [4]: 105%; viability, T/C [5]: 94.8%; viability, T/C [6]: 6.03%; viability, T/C [7]: 89.8%; viability, T/C [8]: 104%; viability, T/C [9]: 90.7%; viability, T/C [10]: 91.9%; viability, T/C [11]: 103%; viability, T/C [12]: 4.38%; viability, T/C [13]: 61.1%; viability, T/C [14]: 50.1%; viability, T/C [15]: 58.1%; viability, T/C [16]: 44%; viability, T/C [17]: 57.4%; viability, T/C [18]: 3.61%; viability, T/C [19]: 36.6%; viability, T/C [20]: 36.2%; viability, T/C [21]: 32.7%; viability, T/C [22]: 38.5%; viability, T/C [23]: 47%; viability, T/C [24]: 0.95%; viability, T/C [25]: 28.3%; viability, T/C [26]: 32%; viability, T/C [27]: 29.9%; viability, T/C [28]: 31.3%; viability, T/C [29]: 36.6%; viability, T/C [30]: 4.89%; viability, T/C [31]: 29%; viability, T/C [32]: 33.1%; viability, T/C [33]: 30.9%; viability, T/C [34]: 29.8%; viability, T/C [35]: 38%; viability, T/C [36]: 5.43%
